Earlier results as cited in patent publication US10028927B2, “Topical pharmaceutical formulation” (Futura Medical Developments Limited, priority 2015, dated 2018).
Where a name gives a salt, the structure may show the parent alone. Values belong to the molecule of their own block, whether it stands above or below them.

What was measured:
[1] = in vivo
[2] = saturated systems in polyethylene glycol and propylene glycol

saturated solubility in propylene glycol (propylene glycol): approximately 50 % w/w
SMILES: O=C(O)Cc1ccccc1Nc1c(Cl)cccc1Cl [sodium salt of diclofenac acid, diclofenac sodium]

SMILES: O=C(O)Cc1ccccc1Nc1c(Cl)cccc1Cl [diclofenac]
systemic clearance compared with other drugs [1]: more rapid systemic clearance compared with other drugs

saturated solubility in polyethylene glycol (polyethylene glycol): 11.18 % w/w
saturated solubilities in propanol or iso-propanol (propanol or iso-propanol): 3-4%
saturated solubility in pure ethanol (pure ethanol): 5 % w/w
diclofenac flux, polyethylene glycol versus propylene glycol systems [2]: no significant difference
SMILES: O=C(O)Cc1ccccc1Nc1c(Cl)cccc1Cl [diclofenac acid]
